Activity calls are given as the source filed them. The rule behind the calls is not given here.
Tests used:
NCI-H460 [1] = experiment: Induction of cell cycle arrest in human NCI-H460 cells assessed as accumulation of cells at sub-G1 phase at 0.12 uM after 72 hrs by flow cytometry (reference value: 1.1%); assay type: functional
NCI-H460 [2] = experiment: Induction of cell cycle arrest in human NCI-H460 cells assessed as accumulation of cells at G0/1 phase at 0.12 uM after 72 hrs by flow cytometry (reference value: 46.8%); assay type: functional
[3] = Induction of cell cycle arrest in human H460-R9A cells assessed as accumulation of cells at sub-G1 phase at 2.2 uM after 72 hrs by flow cytometry (reference value: 1.5%); assay type: functional
[4] = Induction of cell cycle arrest in human H460-R9A cells assessed as accumulation of cells at G0/1 phase at 2.2 uM after 72 hrs by flow cytometry (reference value: 50.1%); assay type: functional
[5] = Induction of cell cycle arrest in human H460-R9A cells assessed as accumulation of cells at G2/M phase at 2.2 uM after 72 hrs by flow cytometry (reference value: 15.4%); assay type: functional
[6] = Antitumor activity against human H460-R9A cells xenografted in mouse assessed as tumor growth inhibition at 20 mg/kg, po qd administered […] for 3 to 4 weeks; assay type: functional; details: time 3-4 weeks, read-out: TGI
[7] = target: T1, Protein deacetylase HDAC6 (Homo sapiens) (UniProt Q9UBN7); experiment: Inhibition of HDAC6 in human NCI-H460 cells at high-dose assessed as increase in alpha-tubulin acetylation measured by Western blot analysis; assay type: cell-based
T1 sequence (whole entry): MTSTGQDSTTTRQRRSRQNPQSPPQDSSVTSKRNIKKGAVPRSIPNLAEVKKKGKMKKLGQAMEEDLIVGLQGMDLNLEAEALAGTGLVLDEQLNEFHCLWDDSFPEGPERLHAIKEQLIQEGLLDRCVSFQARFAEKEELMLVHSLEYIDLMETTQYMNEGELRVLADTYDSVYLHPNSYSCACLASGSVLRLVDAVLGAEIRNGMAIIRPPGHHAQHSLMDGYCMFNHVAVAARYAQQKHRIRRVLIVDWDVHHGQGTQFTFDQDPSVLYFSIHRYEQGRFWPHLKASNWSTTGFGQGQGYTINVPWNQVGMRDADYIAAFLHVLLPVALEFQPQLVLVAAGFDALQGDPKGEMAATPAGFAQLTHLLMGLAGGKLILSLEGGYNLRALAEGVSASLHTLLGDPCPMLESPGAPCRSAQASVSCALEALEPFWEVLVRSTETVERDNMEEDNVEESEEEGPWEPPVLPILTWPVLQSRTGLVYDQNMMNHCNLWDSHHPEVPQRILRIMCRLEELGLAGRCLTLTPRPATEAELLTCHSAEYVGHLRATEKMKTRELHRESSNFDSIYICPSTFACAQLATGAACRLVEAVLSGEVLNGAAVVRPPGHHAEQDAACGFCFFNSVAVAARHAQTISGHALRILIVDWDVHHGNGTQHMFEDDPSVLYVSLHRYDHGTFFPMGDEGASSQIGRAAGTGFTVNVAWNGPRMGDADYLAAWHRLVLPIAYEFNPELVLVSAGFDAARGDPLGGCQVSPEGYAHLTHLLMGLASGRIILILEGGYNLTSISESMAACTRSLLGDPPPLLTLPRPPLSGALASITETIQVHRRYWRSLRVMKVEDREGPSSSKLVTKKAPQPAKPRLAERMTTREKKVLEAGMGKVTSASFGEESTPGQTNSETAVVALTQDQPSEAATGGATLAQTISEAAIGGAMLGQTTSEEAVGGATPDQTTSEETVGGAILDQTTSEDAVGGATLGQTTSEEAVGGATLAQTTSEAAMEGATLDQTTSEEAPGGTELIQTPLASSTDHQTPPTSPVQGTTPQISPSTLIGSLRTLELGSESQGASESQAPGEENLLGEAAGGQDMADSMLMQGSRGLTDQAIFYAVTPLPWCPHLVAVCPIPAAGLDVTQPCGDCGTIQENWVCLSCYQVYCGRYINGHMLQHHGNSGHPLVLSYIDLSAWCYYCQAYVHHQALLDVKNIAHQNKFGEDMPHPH

[8] = target: T2, Histone deacetylase 11 (Homo sapiens) (UniProt Q96DB2); experiment: Inhibition of HDAC11 in human A2780 cells at 0.1 to 0.4 uM assessed as induction of p53 acetylation and measured by Western blot analysis; assay type: cell-based; details: dose 0.1-0.4 µM
T2 sequence (whole entry): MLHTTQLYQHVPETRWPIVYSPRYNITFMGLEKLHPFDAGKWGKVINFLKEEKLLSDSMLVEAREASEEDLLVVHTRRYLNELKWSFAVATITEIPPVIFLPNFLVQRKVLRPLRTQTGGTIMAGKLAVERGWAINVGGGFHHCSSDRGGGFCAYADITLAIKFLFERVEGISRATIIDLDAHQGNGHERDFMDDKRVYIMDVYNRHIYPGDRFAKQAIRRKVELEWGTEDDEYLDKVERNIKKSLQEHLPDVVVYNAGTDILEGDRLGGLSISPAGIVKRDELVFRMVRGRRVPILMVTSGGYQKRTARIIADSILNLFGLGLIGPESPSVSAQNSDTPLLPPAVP

[9] = target: T2, Histone deacetylase 11 (Homo sapiens); experiment: Inhibition of HDAC11 in human A2780 cells at 0.1 to 0.4 uM assessed as increase in p21 level and measured by Western blot analysis; assay type: cell-based; details: dose 0.1-0.4 µM
A2780 = experiment: Induction of cell cycle arrest in human A2780 cells assessed as accumulation of cells at G0/1 phase at 0.95 uM after 72 hrs by flow cytometry (reference value: 48.7%); assay type: functional
MM473 [10] = experiment: Induction of cell cycle arrest in human MM473-Luc cells assessed as accumulation of cells at sub-G1 phase at 1.4 uM after 72 hrs by flow cytometry (reference value: 1.3%); assay type: functional
[11] = Antitumor activity against human MM487 cells xenografted in mouse assessed as tumor growth inhibition at 50 mg/kg, po bid administered 5 times a week for 3 weeks; assay type: functional; details: MM487, 504 h, read-out: TGI
MM473 [12] = experiment: Induction of DNA damage in human MM473 cells at 0.1 to 0.4 uM assessed as increase in p-H2AX levels and measured by Western blot analysis; assay type: functional, cell-based; details: dose 0.1-0.4 µM
[13] = Toxicity in mouse xenografted with human NCI-H460 cells assessed as body weight loss at 50 mg/kg, po qd administered 5 times a week for 3 to 4 weeks; assay type: organism-based; details: in vivo, time 3-4 weeks
NCI-H460 [14] = experiment: Antitumor activity against human NCI-H460 cells xenografted in mouse assessed as tumor growth inhibition at 50 mg/kg, po qd administered 5 times a week for 3 to 4 weeks; assay type: functional; details: time 3-4 weeks, read-out: TGI
[15] = Toxicity in mouse xenografted with human H460-R9A cells assessed as body weight loss at 50 mg/kg, po qd administered 5 times a week for 3 to 4 weeks; assay type: organism-based; details: in vivo, time 3-4 weeks
Mus musculus = experiment: Inhibition of POLA1 in mouse B16 cells xenografted C57BL/6 mouse assessed as increase in IFN-alpha levels at 50 mg/kg, po administered twice a day for 5 days measured by ELISA assay; assay type: functional, organism-based; details: time 5.0 day

O=C(O)C=Cc1ccc(-c2ccc(O)c(C34CC5CC(CC(C5)C3)C4)c2)cc1
Activity (NCI-H460 [1]): 12.4% | Activity (NCI-H460 [2]): 13.8% | Activity [3]: 26.7% | Activity [4]: 22.8% | Activity [5]: 13.8% | inhibition in vivo at 20 mg/kg [6]: 0%

CC(Oc1ccc(-c2ccc(C=CC(=O)O)cc2)cc1C12CC3CC(CC(C3)C1)C2)C(=O)NO (configuration not stated)
inhibition [7]: Active | inhibition [8]: Active | inhibition [9]: Active | Activity (A2780): 10.8% | Activity (MM473 [10]): 10.2% | inhibition in vivo at 50 mg/kg [11]: 72%

O=C(O)C=Cc1ccc(-c2ccc(OCC(=O)NO)c(C34CC5CC(CC(C5)C3)C4)c2)cc1
Activity (MM473 [12]): Active | Activity [13]: 0% | inhibition in vivo at 50 mg/kg (NCI-H460 [14]): 61% | Activity [15]: 0% | inhibition (Mus musculus): Active
